Source: patent US6602515B2, “Photo stable organic sunscreen compounds with antioxidant properties and compositions obtained therefrom” (EM Industries, priority 2001, dated 2003)

Legend:
physchem = type: physicochemical
Experimental: Individual solutions of selected sunscreen compounds (2/1, 2/4, 2/5, 2/7 and 2/8) with Avobenzone were as follows. Each sunscreen compound was dissolved in 70% ethanol/30% H2O solution containing roughly an equal molar amount of Avobenzone. A similar solution containing Di-2-ethylhexyl-2,6-napthalene dicarboxylic acid (DENDA) and Avobenzone was also prepared. Each solution was then illuminated in the solar simulator as configured above for the photostability tests and aliquots of each solution were removed at 30-minute time intervals. These aliquots were injected into an HPLC and the loss of Avobenzone was followed with illumination time. The high performance liquid chromatograph (HPLC) used for all experiments reported therein incorporated a Spectra-Physics model P-200 pump with an Applied Biosystems model 785A UV-Visible detector with a Rheodyne manual injector incorporating a […] sample loop and a 150×4.6 mm reversed-phase C18 column (Alltech). All analyses were carried out under isocratic elution conditions using CH3OH/H2O mixtures for the mobile phase at a flow rate of […] per minute. It was necessary to employ HPLC separation of Avobenzone from each of the sunscreen compounds to quantify Avobenzone due to the absorption spectra overlap with some of these compounds.

[1] = Photostability, 2 hours illumination in Xe arc solar simulator, UV-visible absorption spectrum; type: physicochemical; conditions: for photostability compared to Octocrylene: 2 hours of illumination in the solar simulator
Source text: The solar simulator used for illumination of the samples in the experiments was constructed incorporating a 1 kw Xe arc lamp, optical bench and sample illumination chamber. The lamp output was filtered through a water filter with a course window to remove most of the infrared radiation and optical filters to remove wavelengths below 290 nm. The output of the illumination system was focused onto the face of a 1 cm quartz Cuvette that was thermally equilibrated with a constant temperature water bath at 25 ° C. A magnetic stir was mounted under the Cuvette so that the samples could be stirred while being illuminated. An electric shutter was controlled by a dark room timer to provide precise control of illumination times. The solar simulator was constructed to provide illumination that closely matches terrestrial sunlight. The solar simulator delivered roughly 250 J/cm^2 over a 2-hour period of illumination in a 290-490 nm range. This irradiance was determined using two nitrobenzaldehyde chemical actinometry. The irradiance is much higher than other solar simulator systems which typically illuminate a large area in order to illuminate many samples simultaneously rather than being focused down to a very small area. Each exploratory sunscreen compound was dissolved in 70% ethanol/30% isopropyl myristate and/or 70% ethanol/30% water and the UV visible absorption spectrum measured with a Shimadza UV 2101-double beam spectrophotometer using the solvent as reference. A similar solution of Octocrylene was prepared and the UV-visible absorption spectrum measured. Each solution was then illuminated for two hours in the solar simulator. After illumination, the absorption spectrum was again measured each solution.

[2] = Absorbance and molar absorptivity of sunscreen compounds; type: physicochemical; conditions: for ελMax / λMax: 70% ethanol/30% H2O solution; for molar absorption compared to Avobenzone: 70% ethanol and 30% isopropyl myristate
Experimental: Each exploratory sunscreen compound was dissolved in 70% ethanol/30% isopropyl myristate and/or 70% ethanol/30% water and the UV visible absorption spectrum measured with a Shimadza UV 2101-double beam spectrophotometer using the solvent as reference. A similar solution of Octocrylene was prepared and the UV-visible absorption spectrum measured. Each solution was then illuminated for two hours in the solar simulator. After illumination, the absorption spectrum was again measured each solution. […]

[3] = DPPH test method (antioxidant property, % reducing activity); type: biochemical; conditions: 20 minutes, 517 nm
Experimental: A DPPH concentrate (2.5×) of 25 mg of 1,1-Diphenyl-2-Picyrl-Hydrazyl ACS# 1898-66-4 (Sigma #D-9132, lot 99H3601) dissolved in 250 mL ethanol (USP), is prepared fresh on the measurement date. A DPPH working solution is then prepared by diluting 100 mL of this concentrate to a final volume of 250 mL ([…]). A blank 13×100 mm borosilicate glass screw top tube of ethanol (USP) is used to zero the spectrometer (Milton Roy, Spectronic 20+) at 517 nm and a control tube of DPPH working solution is measured under identical conditions, and taken as 0% activity. Aliquots of the 0.25% & 0.5% (RT & 45° C.) test solution are added to tubes followed by the rapid addition of 4 mL DPPH working solution then rapidly capped and mixed. After 20 minutes, the absorbance of each sample is read at 517 nm.
The percent reducing activity (% RA) is calculated using the following equation:
% Reduction Activity=100 A(0)-A(20)/A(0)
Where A(0) is the absorbance value of the DPPH working solution at 517 nm zeroed against an ethanol blank and A(20) is the absorbance at 517 nm, 20 minutes after combining the antioxidant with the DPPH working solution.
The concentration of antioxidant (mg/ml) in the final assay mixture is calculated based on the dilution of respective aliquots of each compound in the final assay volume and % RA tabulated and plotted as percent activity at each concentration in the dilution series.

[4] = after 2 hours of illumination in the solar simulator
[5] = 2.500 mg/ml in final assay mixture
[6] = 0.028 mg/ml in final assay mixture
[7] = 0.056 mg/ml in final assay mixture
[8] = 0.139 mg/ml in final assay mixture
[9] = 0.278 mg/ml in final assay mixture

Compound | photostability (retention of absorptivity), in words [1, 4] | ελMax [2] [M⁻¹ cm⁻¹] | λMax [2] [nm] | stability compared to Avobenzone [1] | molar absorption compared to Avobenzone [2] | loss of absorbance [1, 4] [%] | absorption after illumination relative to the initial value ([1]; 2 hour period of illumination, not precise) | half-life (physchem) [h] | stabilization of Avobenzone, compared with DENDA (physchem) | photostability compared to Octocrylene [1] | % Reducing Activity [3, 5] [%] | % Reducing Activity [3, 6] [%] | % Reducing Activity [3, 7] [%] | % Reducing Activity [3, 8] [%] | % Reducing Activity [3, 9] [%]
CCOC(=O)C(=Cc1cc(OC)c(OC)c(OC)c1)C(=O)OCC [2/1, diethyl-3,4,5-trimethoxy benzylidene malonate, reference compound] | retain most of their absorptivity | 20000 | 313 | – | – | – | – | – | appear to stabilize Avobenzone as effectively as DENDA | comparable photo stabilities to Octocrylene | 0.0 | – | – | – | –
CCOC(=O)C(C#N)=Cc1cc(OC)c(OC)c(OC)c1 [2/2, ethyl-alpha-cyano-3,4,5-trimethoxy cinnamate, reference compound] | – | – | – | – | – | – | – | – | – | – | 3 | – | – | – | –
CCOC(=O)C(C#N)=Cc1cc(OC)c(O)c(OC)c1 [2/3, ethyl-alpha-cyano-3,5-dimethoxy-4-hydroxy cinnamate] | – | – | – | – | – | – | – | – | – | – | 25.40 | 5.2 | 8.4 | 11.3 | 15.5
CCOC(=O)C(=Cc1cc(OC)c(O)c(OC)c1)C(=O)OCC [2/4, diethyl-3,5-dimethoxy-4-hydroxy benzylidene malonate] | retain most of their absorptivity | 12000 | 338 | appear to be more stable than Avobenzone | lower molar absorption than Avobenzone | – | – | – | appear to stabilize Avobenzone as effectively as DENDA | comparable photo stabilities to Octocrylene | 71.70 | 5.2 | 12.8 | 29.51 | 33.4
CCOC(=O)C(=Cc1cc(OC)c(O)c(OC)c1)C(C)=O [2/5, ethyl-alpha-acetyl-3,5-dimethoxy-4-hydroxy cinnamate] | retain most of their absorptivity | 19000 | 348 | appear to be more stable than Avobenzone | lower molar absorption than Avobenzone | – | – | – | somewhat less effective than DENDA | comparable photo stabilities to Octocrylene | – | 20.7 | 31.0 | 47.3 | 59.9
COc1cc(C=C(C(=O)OCCC(C)C)C(=O)OCCC(C)C)cc(OC)c1O [2/10, di-iso-amyl-3,5-dimethoxy-4-hydroxy benzylidene malonate] | – | – | – | – | – | – | – | – | – | – | – | 10.2 | 14.6 | 22.3 | 30.1
CCCCC(CC)COC(=O)c1ccc2cc(C(=O)OCC(CC)CCCC)ccc2c1 (stereo not shown) [DENDA, Di-2-ethylhexyl-2,6-napthalene dicarboxylic acid, reference compound] | – | – | – | – | – | – | – | – | Initially the loss of Avobenzone was quite rapid but then seemed to become stable | – | – | – | – | – | –

The next lines start with results.

photostability (retention of absorptivity), in words [1, 4] | ελMax [2] [M⁻¹ cm⁻¹] | λMax [2] [nm] | stability compared to Avobenzone [1] | molar absorption compared to Avobenzone [2] | loss of absorbance [1, 4] [%] | absorption after illumination relative to the initial value ([1]; 2 hour period of illumination, not precise) | half-life (physchem) [h] | Compound | stabilization of Avobenzone, compared with DENDA (physchem) | photostability compared to Octocrylene [1] | % Reducing Activity [3, 5] [%] | % Reducing Activity [3, 6] [%] | % Reducing Activity [3, 7] [%] | % Reducing Activity [3, 8] [%] | % Reducing Activity [3, 9] [%]
– | – | 314 | – | – | 72 | – | – | CCOC(=O)C(C)=Cc1cc(OC)c(O)c(OC)c1 [2/7, ethyl-alpha-methyl-3,5-dimethoxy-4-hydroxy cinnamate] | – | – | – | 46.1 | 61.2 | 77.3 | 85.0
– | 16000 | 340 | – | – | – | approximately 82% | – | CCCCC(CC)COC(=O)C(=Cc1cc(OC)c(O)c(OC)c1)C(=O)OCC(CC)CCCC (stereo not shown) [2/8, di(2-ethyl-hexyl)-3,5-dimethoxy-4-hydroxy benzylidene malonate] | appear to stabilize Avobenzone as effectively as DENDA | – | – | 8.5 | 13.0 | 23.2 | 33.7
– | 25000 | 360 | – | – | – | – | ~3 | COc1ccc(C(=O)CC(=O)c2ccc(C(C)(C)C)cc2)cc1 [Avobenzone, reference compound] | – | – | – | – | – | – | –
no loss in absorptivity | – | – | – | – | – | – | – | CCCCC(CC)COC(=O)C(C#N)=C(c1ccccc1)c1ccccc1 (stereo not shown) [Octocrylene, reference compound] | – | – | – | – | – | – | –
